Legend:
NIH-3T3 cells = experiment: CAT transient transfection; type: cell-based, mouse; conditions: for DNA transfection (in words): NIH-3T3; for CAT ACTIVITY: 2 μg pSV2CAT, 6 h OPTI MEM serum-free
Description: (§1) A one-to-one mixture (by weight) of the desired lipid and dioleylphosphatidyl ethanolamine was prepared in CHCl3. The CHCl3 was removed on the rotary evaporator to obtain a thin film of lipid mixture. The mixture was hydrated with enough water to obtain approximately 1.25 mg of lipid per ml of solution. The solution was passed through a microfluidizer twice and diluted to 1 mg/ml. The liposome formulation was then filtered through a 0.2 μ filter. Compound 8 was also formulated without DOPE either by sonication at 1 mg/ml in water or by dissolving a dried lipid film with ethanol and then adding water to give a final concentration of 2.5 mg/ml. Ethanol was 10% of that volume. In some instances, this was further diluted with water to 1 mg/ml, 4% ethanol.
(§2) Baby hamster kidney (BHK-21) , COS-7, HeLa-S3 cells, and normal human fibroblasts isolated from newborn foreskin dermis were grown in Dulbecco's-modified Eagle's medium (DMEM) containing 10% fetal bovine serum (FBS), 2 mM L-glutamine (gln), 0.1 mM MEM nonessential amino acids (NEAA), 100 U/ml penicillin, and 100 μg/ml streptomycin. NIH-3T3 cells were grown in DMEM containing 10% calf serum (CS), 2 mMgln, 0.1 mM NEAA 100 U/ml penicillin, and 100 μg/ml streptomycin. PC12 cells were grown in DMEMcontaining 10% horse serum, 5% FBS, 2 mM gln, 0 1 mMNEAA, 100 U/ml penicillin and 100 μ/ml streptomycin. Jurkat cells (human lymphoid cell line) were grown in RPMI-1640 supplemented with 10% FBS, 2mML-glutamine, 100 U/ml penicillin, and 100 μg/ml streptomycin. Human keratinocytes were isolated from newborn foreskin epidermis and cultured in Keratinocyte Growth Medium (Clonetics, San Diego, Ca.). All cell lines were maintained in a humidified incubator with a 5% CO2 atmosphere at 37° C.
(§3) pSV2CAT (5.0 Kb) was described previously (Gorman, C. M. et al. (1982) Mol. Cell. Biol. 2:1044). pCMVCAT (5.0 Kb) was also described previously (Foecking M. K. and Hofstetter, H. (1986) Gene 45:101). Plasmid DNA was purified by isopycnic centrifugation in CsCl/EtBr gradients after recovery by alkaline lysis (Maniatis, T. et al. (1982) in Molecular Cloning: A Laboratory Manual, Cold Spring Harbor Laboratory, Cold Spring Harbor, N.Y., pp. 90-91).
(§4) For transient transfection of pSV2CAT DNA or pCMVCAT DNA, cells were plated in 6-well tissue culture dishes (35 mm wells) and incubated overnight to approximately 60% confluency. To transfect cells in one well, 1-2 μg of pSV2CAT DNA or pCMVCAT DNA was diluted in 100 μl Opti-MEM I. Cationic lipids were diluted separately in another 100 μl aliquot of Opti-MEM I. The two solutions were then mixed in a polystyrene tube, incubated for 10-15 min at room temperature to allow the formation of a DNA-liposome complex, and diluted to one ml by adding 0.8 ml Opti-MEM I or DMEM containing 5% fetal bovine serum (FBS), 2 mMgln, 0.1 mMNEAA, and lacking antibiotics. The cells were washed once with Opti-MEM I or serum-free DMEM, and the DNA-liposome complex was added directly to the cells. After a six hr incubation at 37° C., the transfection complexes were removed and two ml of DMEM containing 10% FBS, 2 mMgln, 0.2 mMNEAA, 100 U/ml penicillin, and 100 μg/ml streptomycin, was added to each well. Note: human keratinocytes were cultured and transfected in Keratinocyte Growth Medium. Cells were incubated for an additional 48 hrs and lysed in situ by freeze-thawing once or twice in 300 μl 0.1M Tris-HC1, pH 7.8-8.0 containing 0 1% Triton X-100. Cell lysates were assayed for CAT activity.
(§5) Cell lysates were assayed for CAT activity as described by Neumann et al. (1987) BioTechniques 5:444 using [^14 C]-butyryl coenzyme A (New England Nuclear, Boston, Mass.). The enzyme reactions were incubated for 2 hrs at 37° C., overlayed with 3.0 ml Econofluor (New England Nuclear) and then incubated for an additional 2 hrs to allow diffusion of the acetylated chloramphenicol into the scintillation fluid. CAT activity was determined by measuring radioactivity in a liquid scintillation counter. […]

Jurkat cells = experiment: CAT transient transfection; type: cell-based, human; conditions: pSV2CAT, 6 h OPTIMEM
Description: as §1, §2, §3
(§6) For transient nuclear expression of pSV2CAT or pCMVCAT in Jurkat cells, cells were washed with Opti-MEM I or serum-free RPMI 1640 containing 2 mM gln and plated in six-well plates at a density of 3×10^6 cells per well in 0.8 ml Opti-MEM I or RPMI 1640. For each transfection, 5 μg pSV2CAT DNA or 2 μg pCMVCAT DNA was diluted in 100 μl Opti-MEM I. Lipids were diluted separately in another 100 μl aliquot of Opti-MEMI. The two solutions were then mixed in a polystyrene tube and incubated for 10-15 min at room temperature. The DNA-liposome complex was added to the cell suspensions and incubated 6 hours at 37° C., after which 4 ml growth medium were added per well (RPMI-1640; 10% FBS). Phorbol myristate acetate (Sigma Chemical Co., St. Louis, Mo.) and phytohemagglutinin (Sigma) were also added to a final concentration of 50 ng/ml and 1 μg/ml, respectively, to activate the cells. Cells were harvested at approximately 48 hours post-transfection by centrifugation. Cell lysates were prepared by resuspending cell pellets at 0° C. in 0.1 M Tris-HC1 pH 8.0 containing 0.1% Triton X-100 and freeze-thawing once. Cell lysates were cleared by centrifugation and assayed for CAT activity.
as §5

[1] = % protein (toxicity estimate, Bradford) after transfection; type: cell-based; conditions: human, hela-s3 cells, 2 μg pSV2CAT
Description: as §1
(§7) Baby hamster kidney (BHK-21) , COS-7, HeLa-S3 cells, and normal human fibroblasts isolated from newborn foreskin dermis were grown in Dulbecco's-modified Eagle's medium (DMEM) containing 10% fetal bovine serum (FBS), 2 mM L-glutamine (gln), 0.1 mM MEM nonessential amino acids (NEAA), 100 U/ml penicillin, and 100 μg/ml streptomycin. […]
(§8) The "% protein" column indicates the relative amount of protein in the sample tested for CAT activity and therefore provides a way to estimate toxicity of the compounds being tested. […] Protein was measured using a commercially available Bradford protein assay (BioRad Laboratories, Richmond, Ca.). […]

[2] = as above; type: cell-based, mouse; conditions: mouse, nih-3t3 cells; 16 μg lipid; 2 μg pSV2CAT; 6 h OPTI MEM serum-free
Description: as §1, §7, §8

[3] = as above; type: cell-based, human; conditions: human, keratinocytes, 2 μg pSV2CAT, 6 h
Description: as §1
as §2, with “C. […]” for “C.”
as §8

[4] = test system: normal human keratinocytes; experiment: CAT transient transfection; type: cell-based; conditions: for CAT ACTIVITY: 2 μg pSV2CAT, 6 h, 50 μl of 300 μl assayed; for DNA transfection (in words): keratinocytes
Description: as §1, §2, §3, §4, §5

HeLa-S3 cells = experiment: CAT transient transfection; type: cell-based; conditions: for CAT ACTIVITY: 2 μg pSV2CAT, 6 h
Description: as §1, §2, §3, §4, §5

[5] = % protein (toxicity estimate, Bradford) after transfection; type: cell-based, human; conditions: human, jurkat cells, pSV2CAT, 6 h OPTIMEM
Description: as §1, §2, §6
The "% protein" column indicates the relative amount of protein in the sample tested for CAT activity and therefore provides a way to estimate toxicity of the compounds being tested. The "CAT Activity" column indicates the relative transfection effectiveness of the lipid formulation in the various cell lines. The control sample was a cell culture grown under similar conditions as those that were transfected, but with no DNA or cationic lipid added. Protein was measured using a commercially available Bradford protein assay (BioRad Laboratories, Richmond, Ca.).
Jurkat cells (3 × 10^6 cells) were transfected in OPTIMEM with
μg of pSV2CAT DNA for 6 hours.
DNA-lipid complexes were made in OPTIMEM. Jurkat cells (3 × 10^
cells) were transfected in RPMI1640 with 2 μg of pCMVCAT DNA for 6

some cell lines [6] = conditions: cited from earlier work; for transfection efficiency relative to DOTMA: some cell lines; for transfection / delivery of nucleic acids: lipid aggregates or liposomes
some cell lines [7] = conditions: cited from earlier work

SMILES: CCCCCCCC/C=C\CCCCCCCCOCC(C[N+](C)(C)CCN)OCCCCCCCC/C=C\CCCCCCCC (stereo not drawn) [Compound 2, 1-Propanaminium, N-(2-amino)ethyl-N,N-dimethyl-2,3-bis(9-octadecenyloxy)-bromide]
- DNA transfection (in words) (NIH-3T3 cells): good activity

SMILES: CCCCCCCC/C=C\CCCCCCCCOCC(C[N+](C)(C)CCBr)OCCCCCCCC/C=C\CCCCCCCC (stereo not drawn) [Compound 3, 1-Propanaminium, N-[2-(2-bromo)ethyl]-N,N-dimethyl-2,3-bis(9-octadecenyloxy)-,bromide]
- CAT ACTIVITY (Jurkat cells; 30 μg lipid): 3008 CPM/150 μl
- viability at 6 h ([1]; 6 μg lipid, DMEM, 5% FBS): 54%
- viability at 6 h ([1]; 12 μg lipid, OPTIMEM I, 0% FBS): 43%
- viability at 6 h [2]: 35%
- viability at 6 h ([3]; 10 μg lipid): 42%
- CAT ACTIVITY ([4]; 10 μg lipid): 10,598 CPM
- CAT ACTIVITY (HeLa-S3 cells; 6 μg lipid, DMEM, 5% FBS): 78,798 CPM
- CAT ACTIVITY (HeLa-S3 cells; 12 μg lipid, OPTIMEM I, 0% FBS): 29,400 CPM
- DNA transfection (in words) (HeLa-S3 cells; HeLa-S3, presence or absence of serum): good activity
- CAT ACTIVITY (NIH-3T3 cells; 16 μg lipid): 6,074 CPM
- DNA transfection (in words) (NIH-3T3 cells): good activity
- viability at 6 h ([5]; 30 μg lipid): 97%

SMILES: CCCCCCCC/C=C\CCCCCCCCOCC(C[N+](C)(C)CCNCCCN)OCCCCCCCC/C=C\CCCCCCCC (stereo not drawn) [Compound 4, 1-Propanaminium, N-[2-[(3-aminopropyl)amino]ethyl]-N,N-dimethyl-2,3-bis(9-octadecenyloxy)-, bromide]
- CAT ACTIVITY (Jurkat cells; 20 μg lipid): 2252 CPM/150 μl
- CAT ACTIVITY (Jurkat cells; 30 μg lipid): 820 CPM/150 μl
- viability at 6 h ([3]; 40 μg lipid): 41%
- CAT ACTIVITY ([4]; 40 μg lipid): 20,038 CPM
- DNA transfection (in words) [4]: effective
- CAT ACTIVITY (NIH-3T3 cells; 24 μg lipid): 3,114 CPM
- viability at 6 h ([5]; 20 μg lipid): 93%
- viability at 6 h ([5]; 30 μg lipid): 100%

SMILES: CCCCCCCC/C=C\CCCCCCCCOCC(C[N+](C)(C)CCNCCCNCCCCNCCCN)OCCCCCCCC/C=C\CCCCCCCC (stereo not drawn) [Compound 5, 1-Propanaminium,N-{2-[[3-[[4-[(3-aminopropyl)amino]butyl]-amino]propyl]amino]ethyl}-n,n-dimethyl-2,3-bis-(9-octadecenyloxy)-, bromide]
- CAT ACTIVITY (Jurkat cells; 20 μg lipid): 1170 CPM/150 μl
- DNA transfection (in words) [4]: effective
- viability at 6 h ([5]; 20 μg lipid): 100%

SMILES: CC(C)CCC[C@@H](C)[C@H]1CC[C@H]2[C@@H]3CC=C4C[C@@H](OC(=O)NCCN(C)C)CC[C@]4(C)[C@H]3CC[C@]12C [DC-Chol]
- transfection efficiency relative to DOTMA (some cell lines [6]): more efficient transfection
- toxicity relative to DOTMA (some cell lines [7]): lower toxicity

SMILES: CCCCCCCCCCCCCCCCCCN(CCCCCCCCCCCCCCCCCC)C(=O)CNC(=O)C(CCCNCCCN)NCCCN (stereo not drawn) [DOGS, 5-carboxyspermylglycine dioctadecylamide]
- transfection / delivery of nucleic acids (some cell lines [6]): efficient transfection
- transfection efficiency relative to DOTMA (some cell lines [6]): more efficient
- toxicity relative to DOTMA (some cell lines [7]): less toxic

SMILES: CCCCCCCC/C=C\CCCCCCCCOCC(C[N+](C)(C)C)OCCCCCCCC/C=C\CCCCCCCC (stereo not drawn) [DOTMA]
- transfection / delivery of nucleic acids (some cell lines [6]): efficient delivery of nucleic acids to some types of cells

SMILES: CCCCCCCCCCCCCCCC(=O)OCC(COP(=O)(O)OCCNC(=O)C(CCCNCCCN)NCCCN)OC(=O)CCCCCCCCCCCCCCC (stereo not drawn) [DPPES, dipalmitoylphosphatidylethanolamine 5-carboxyspermylamide]
- transfection / delivery of nucleic acids (some cell lines [6]): efficient transfection
- transfection efficiency relative to DOTMA (some cell lines [6]): more efficient
- toxicity relative to DOTMA (some cell lines [7]): less toxic

From patent US5334761A, “Cationic lipids” (Life Technologies, Inc., priority 1992, dated 1994)
